Test results from ChEMBL document CHEMBL6134827, “The discovery of novel antimicrobial peptides against drug-resistant bacteria based on fragments fusion strategy” (Eur J Med Chem, 2025).
Activity calls are given as the source filed them. No cut-off for these calls is given here. Non-standard residues stand in square brackets, D forms with d. Residues, ends and D or L forms follow the SMILES beside them. Dab = NCC[C@H](N)C(=O)O

What was measured:
Staphylococcus aureus [1] = assay: Antimicrobial activity against Staphylococcus aureus ATCC 29213 assessed as inhibition of visible microbial growth incubated for 18 hrs by broth microdilution method; format: functional
Staphylococcus aureus [2] = assay: Antimicrobial activity against multidrug resistant Staphylococcus aureus assessed as inhibition of visible microbial growth incubated for 18 hrs by broth microdilution method; format: functional
Acinetobacter baumannii = assay: Antimicrobial activity against multidrug resistant Acinetobacter baumannii assessed as inhibition of visible microbial growth incubated for 18 hrs by broth microdilution method; format: functional
Pseudomonas aeruginosa [3] = assay: Antimicrobial activity against multidrug resistant Pseudomonas aeruginosa assessed as inhibition of visible microbial growth incubated for 18 hrs by broth microdilution method; format: functional
Escherichia coli [4] = assay: Antimicrobial activity against multidrug resistant Escherichia coli assessed as inhibition of visible microbial growth incubated for 18 hrs by broth microdilution method; format: functional
Escherichia coli [5] = assay: Antimicrobial activity against Escherichia coli ATCC 25922 assessed as inhibition of visible microbial growth incubated for 18 hrs by broth microdilution method; format: functional
[6] = Hemolytic activity in human red blood cell assessed as hemolysis at 128 microg/ml measured after 1 hrs by microplate reader assay relative to control; format: toxicity, cell-based, Erythrocyte; conditions: red blood cells, at 128 µg/mL, read-out: Activity
[7] = Cytotoxicity against HEK293T cells assessed as survival rate at 64 microg/ml measured after 24 hrs by CCK-8 assay relative to control; format: toxicity, cell-based, HEK-293T; conditions: human, at 64 µg/mL, read-out: Survival
[8] = Cytotoxicity against human LO2 cells assessed as survival rate at 64 microg/ml measured after 24 hrs by CCK-8 assay relative to control; format: toxicity, cell-based, L02; conditions: at 64 µg/mL, read-out: Survival
Staphylococcus aureus [9] = assay: Antibacterial activity against multidrug resistant Staphylococcus aureus assessed as reduction in bacterial growth at 32 microg/mL by bactericidal kinetic assay; format: functional, organism-based; conditions: dose 32.0 µg/ml, time 0.5-4 hrs
[10] = Cytotoxicity against human BEAS-2B cells assessed as inhibition of cell growth measured after 24 hrs by CCK-8 assay; format: toxicity, cell-based
[11] = Stability in 25% human plasma assessed as compound remaining measured after 24 hrs by RP-HPLC analysis; format: ADME, cell-free; conditions: 25% plasma, read-out: Stability
Pseudomonas aeruginosa [12] = assay: Antibacterial activity against multidrug resistant Pseudomonas aeruginosa assessed as reduction in bacterial growth at 32 microg/mL measured after 1.5 hrs by bactericidal kinetic assay relative to control; format: functional; design: scale not given: the % may be the effect or the level left; conditions: dose 32 µg/ml
Staphylococcus aureus [13] = assay: Induction of morphological changes in multidrug resistant Staphylococcus aureus assessed as surface roughening at 16 microg/ml incubated for 1 hrs by SEM analysis; format: functional, organism-based; conditions: dose 16.0 µg/ml
Staphylococcus aureus [14] = assay: Induction of morphological changes in multidrug resistant Staphylococcus aureus assessed as presence of cellular debris at 16 microg/ml incubated for 1 hrs by SEM analysis; format: functional, organism-based; conditions: dose 16.0 µg/ml
Pseudomonas aeruginosa [15] = assay: Drug resistance, ratio of MIC for multidrug resistant Pseudomonas aeruginosa after 16 passages to MIC for multidrug resistant Pseudomonas aeruginosa after first exposure; format: functional
Staphylococcus aureus [16] = assay: Drug resistance, ratio of MIC for multidrug resistant Staphylococcus aureus after 16 passages to MIC for multidrug resistant Staphylococcus aureus after first exposure; format: functional
Cell membrane [17] = assay: Induction of outer cell membrane permeabilization in multidrug resistant Pseudomonas aeruginosa assessed as increase in fluorescence intensity measured for 12 mins by NPN uptake assay; format: subcellular; conditions: dose 4-32 µg/ml
Cell membrane [18] = assay: Induction of outer cell membrane permeabilization in multidrug resistant Pseudomonas aeruginosa assessed as increase in fluorescence intensity at >16 microg/ml measured for 12 mins by NPN uptake assay; format: subcellular; conditions: dose > 16.0 µg/ml
Pseudomonas aeruginosa [19] = assay: Antimicrobial activity against multidrug resistant Pseudomonas aeruginosa assessed as inhibition of bacterial growth at >=125 microg/ml in presence of lipoteichoic acid by checkerboard microdilution assay; format: functional, organism-based; conditions: dose >= 125.0 µg/ml
Pseudomonas aeruginosa [20] = assay: Antimicrobial activity against multidrug resistant Pseudomonas aeruginosa at 1.9 to 500 microg/ml in presence of phosphatidylglycerol acid by checkerboard microdilution assay; format: functional, organism-based; conditions: dose 1.9-500 µg/ml
[21] = Toxicity in female C57BL/6 mouse assessed as effect on body weight at 5 to 20 mg/kg, ip administered daily and measured for 5 days; format: organism-based; conditions: in vivo, 120 h, dose 5-20 mg/kg, time 5 day
[22] = Hepatotoxicity in female C57BL/6 mouse assessed as change in ALT level at 20 mg/kg, ip administered daily and measured for 5 days; format: toxicity, organism-based; conditions: in vivo, 120 h, time 5 day
[23] = Nephrotoxicity in female C57BL/6 mouse assessed as change in BUN level at 20 mg/kg, ip administered daily and measured for 5 days; format: toxicity, organism-based; conditions: in vivo, 120 h, time 5 day
[24] = Toxicity in female C57BL/6 mouse assessed as histopathological change in liver at 20 mg/kg, ip administered daily and measured for 5 days by H and E staining based analysis; format: organism-based; conditions: in vivo, 120 h, time 5 day
[25] = Toxicity in female C57BL/6 mouse assessed as histopathological change in lung at 20 mg/kg, ip administered daily and measured for 5 days by H and E staining based analysis; format: organism-based; conditions: in vivo, 120 h, time 5 day
Pseudomonas aeruginosa [26] = assay: In vivo antibacterial activity against multidrug resistant Pseudomonas aeruginosa infected in acute peritonitis C57BL/6 mouse model assessed as increase in mouse survival at 5 to 20 mg/kg, ip measured after 12 hrs; format: functional, organism-based; conditions: dose 5-20 mg/kg
Pseudomonas aeruginosa [27] = assay: In vivo antibacterial activity against multidrug resistant Pseudomonas aeruginosa infected in acute peritonitis C57BL/6 mouse model assessed as decrease in IL-6 level in serum at 5 to 20 mg/kg, ip measured after 12 hrs by ELISA; format: functional, organism-based; conditions: dose 5-20 mg/kg
Pseudomonas aeruginosa [28] = assay: In vivo antibacterial activity against multidrug resistant Pseudomonas aeruginosa infected in acute peritonitis C57BL/6 mouse model assessed as reduction in bacterial load in liver at 10 to 20 mg/kg, ip measured after 12 hrs; format: functional, organism-based; conditions: dose 10-20 mg/kg
Pseudomonas aeruginosa [29] = assay: In vivo antibacterial activity against multidrug resistant Pseudomonas aeruginosa infected in acute peritonitis C57BL/6 mouse model assessed as reduction in bacterial load in lung at 10 to 20 mg/kg, ip measured after 12 hrs; format: functional, organism-based; conditions: dose 10-20 mg/kg
Pseudomonas aeruginosa [30] = assay: In vivo antibacterial activity against multidrug resistant Pseudomonas aeruginosa infected in acute peritonitis C57BL/6 mouse model assessed as reduction in tubular dilation at 5 to 20 mg/kg, ip measured after 12 hrs by H and E staining based analysis; format: functional, organism-based; conditions: dose 5-20 mg/kg
Pseudomonas aeruginosa [31] = assay: Induction of morphological changes in multidrug resistant Pseudomonas aeruginosa assessed as effect on cell integrity at 16 microg/ml incubated for 1 hrs by SEM analysis; format: functional, organism-based; conditions: dose 16.0 µg/ml
Pseudomonas aeruginosa [32] = assay: Antibacterial activity against multidrug resistant Pseudomonas aeruginosa assessed as reduction in bacterial growth at 32 microg/mL by bactericidal kinetic assay; format: functional, organism-based; conditions: dose 32.0 µg/ml, time 0.5-4 hrs
Pseudomonas aeruginosa [33] = assay: Induction of morphological changes in multidrug resistant Pseudomonas aeruginosa assessed as surface roughening at 16 microg/ml incubated for 1 hrs by SEM analysis; format: functional, organism-based; conditions: dose 16.0 µg/ml
Pseudomonas aeruginosa [34] = assay: Induction of morphological changes in multidrug resistant Pseudomonas aeruginosa assessed as presence of cellular debris at 16 microg/ml incubated for 1 hrs by SEM analysis; format: functional, organism-based; conditions: dose 16.0 µg/ml
Cell membrane [35] = assay: Induction of cytoplasmic membrane depolarization in multidrug resistant Pseudomonas aeruginosa assessed as increase in fluorescence intensity at MIC concentration measured within 1 min by DISC3-5 dye based fluorescence analysis; format: subcellular
Pseudomonas aeruginosa [36] = assay: Antimicrobial activity against multidrug resistant Pseudomonas aeruginosa at 1.9 to 500 microg/ml in presence of phosphatidylcholine by checkerboard microdilution assay; format: functional, organism-based; conditions: dose 1.9-500 µg/ml

CC(C)C[C@H](NC(=O)CN)C(=O)N[C@@H](CCCNC(=N)N)C(=O)N[C@@H](CCN)C(=O)N[C@@H](Cc1c[nH]c2ccccc12)C(=O)N[C@@H](CC(C)C)C(=O)N[C@@H](CCCNC(=N)N)C(=O)N[C@@H](CCN)C(=O)N[C@@H](Cc1ccccc1)C(=O)N[C@@H](CCN)C(=O)N[C@@H](CCN)C(=O)N[C@@H](Cc1ccccc1)C(=O)N[C@@H](Cc1c[nH]c2ccccc12)C(=O)O (H-GLR[Dab]WLR[Dab]F[Dab][Dab]FW-OH)
MIC (Staphylococcus aureus [1]): 4.8 µM | MIC (Staphylococcus aureus [2]): 4.8 µM | MIC (Acinetobacter baumannii): 4.8 µM | MIC (Pseudomonas aeruginosa [3]): 4.8 µM | MIC (Escherichia coli [4]): 4.8 µM | MIC (Escherichia coli [5]): 4.8 µM | hemolysis at 1 h, 128 µg/mL [6]: < 10% | viability at 24 h, 64 µg/mL [7]: > 80% | viability at 24 h, 64 µg/mL [8]: > 80% | Activity (Staphylococcus aureus [9]): Time-dependent-effect | CC50 at 24 h [10]: > 64 µg/mL | remaining at 24 h [11]: 40% | Activity (Pseudomonas aeruginosa [12]): 100% | Activity (Staphylococcus aureus [13]): Active | Activity (Staphylococcus aureus [14]): Active | Ratio (Pseudomonas aeruginosa [15]): <2 | Ratio (Staphylococcus aureus [16]): <2 | Activity (Cell membrane [17]): Active | Activity (Cell membrane [18]): Active | Activity (Pseudomonas aeruginosa [19]): Active; Modest Inhibition Observed | Activity (Pseudomonas aeruginosa [20]): inactive | Activity [21]: Non-toxic | Activity [22]: Non-toxic | Activity [23]: Non-toxic | Activity [24]: Non-toxic | Activity [25]: Non-toxic | Activity (Pseudomonas aeruginosa [26]): Active | Activity (Pseudomonas aeruginosa [27]): Active | Activity (Pseudomonas aeruginosa [28]): Active | Activity (Pseudomonas aeruginosa [29]): Active | Activity (Pseudomonas aeruginosa [30]): Active | Activity (Pseudomonas aeruginosa [31]): Active | Activity (Pseudomonas aeruginosa [32]): Time-dependent-effect | Activity (Pseudomonas aeruginosa [33]): Active | Activity (Pseudomonas aeruginosa [34]): Active | Activity (Cell membrane [35]): Active; Maximal Depolarization Observed | Activity (Pseudomonas aeruginosa [36]): Active
